# Measurements as given in PMC8319603, “Developing C2-Aroyl Indoles as Novel Inhibitors of IDO1 and Understanding Their Mechanism of Inhibition via Mass Spectroscopy, QM/MM Calculations and Molecular Dynamics Simulation” (Frontiers in Chemistry, 2021).
# Target: T1, indolamine-2, 3-dioxygenase one (IDO1) (Homo sapiens, UniProt P14902)
# T1 construct: purchased Biovision P1096
# Test: Inhibition kinetics (Lineweaver-Burk plots)
# Format: biochemical
# Conditions: L-tryptophan 1–4 mM, inhibitor 0–1.5 µM; with respect to L-tryptophan
# Description: The IDO1 activity assay was performed to measure the formation of […] by absorbance plate reader at 492 nm. The mode of inhibition of the screened compounds was determined from the Lineweaver-Burk plots, which are the double reciprocal plots of enzyme reaction velocities (1/V) vs. substrate concentrations (1/[S]), where V and [S] represent the initial rate of enzymatic reaction and L-tryptophan concentration respectively.
# T1 sequence (P14902 whole entry): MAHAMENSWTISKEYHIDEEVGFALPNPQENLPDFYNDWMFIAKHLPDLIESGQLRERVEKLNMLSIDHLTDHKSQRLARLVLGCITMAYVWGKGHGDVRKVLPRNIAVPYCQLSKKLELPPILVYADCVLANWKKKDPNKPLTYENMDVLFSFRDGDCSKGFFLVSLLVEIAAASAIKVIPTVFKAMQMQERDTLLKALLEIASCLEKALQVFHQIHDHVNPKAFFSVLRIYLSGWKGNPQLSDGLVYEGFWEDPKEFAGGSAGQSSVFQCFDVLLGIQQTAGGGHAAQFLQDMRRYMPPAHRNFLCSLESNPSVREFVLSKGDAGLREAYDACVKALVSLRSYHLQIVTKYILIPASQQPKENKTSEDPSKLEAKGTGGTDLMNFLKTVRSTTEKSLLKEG
compound,measurement,value
CC(=O)NCCc1c(C(=O)c2ccc([N+](=O)[O-])cc2)[nH]c2ccccc12 [8d],Mode of inhibition of IDO1,competitive
